Experimental data: US12655151B2, “Ion channel modulators” (Praxis Precision Medicines, Inc., priority 2019, dated 2026)

These compounds were tested against T1, human NaV1.6 (hNaV1.6) (Homo sapiens, UniProt Q9UQD0) (assay: Modulation of late sodium current (INaL) at hNaV1.6, PatchXpress electrophysiology). Details: HEK293, HEK-293 cells expressing recombinant human NaV1.6, late current evoked by 300 nM ATX-II, read-out: NaV 1.6 Assay Data (percent inhibition of INaL at hNaV1.6).
T1 construct: expressed in transfected cells; host or cells: HEK-293 (G418 selection)
T1 sequence (Q9UQD0 whole entry): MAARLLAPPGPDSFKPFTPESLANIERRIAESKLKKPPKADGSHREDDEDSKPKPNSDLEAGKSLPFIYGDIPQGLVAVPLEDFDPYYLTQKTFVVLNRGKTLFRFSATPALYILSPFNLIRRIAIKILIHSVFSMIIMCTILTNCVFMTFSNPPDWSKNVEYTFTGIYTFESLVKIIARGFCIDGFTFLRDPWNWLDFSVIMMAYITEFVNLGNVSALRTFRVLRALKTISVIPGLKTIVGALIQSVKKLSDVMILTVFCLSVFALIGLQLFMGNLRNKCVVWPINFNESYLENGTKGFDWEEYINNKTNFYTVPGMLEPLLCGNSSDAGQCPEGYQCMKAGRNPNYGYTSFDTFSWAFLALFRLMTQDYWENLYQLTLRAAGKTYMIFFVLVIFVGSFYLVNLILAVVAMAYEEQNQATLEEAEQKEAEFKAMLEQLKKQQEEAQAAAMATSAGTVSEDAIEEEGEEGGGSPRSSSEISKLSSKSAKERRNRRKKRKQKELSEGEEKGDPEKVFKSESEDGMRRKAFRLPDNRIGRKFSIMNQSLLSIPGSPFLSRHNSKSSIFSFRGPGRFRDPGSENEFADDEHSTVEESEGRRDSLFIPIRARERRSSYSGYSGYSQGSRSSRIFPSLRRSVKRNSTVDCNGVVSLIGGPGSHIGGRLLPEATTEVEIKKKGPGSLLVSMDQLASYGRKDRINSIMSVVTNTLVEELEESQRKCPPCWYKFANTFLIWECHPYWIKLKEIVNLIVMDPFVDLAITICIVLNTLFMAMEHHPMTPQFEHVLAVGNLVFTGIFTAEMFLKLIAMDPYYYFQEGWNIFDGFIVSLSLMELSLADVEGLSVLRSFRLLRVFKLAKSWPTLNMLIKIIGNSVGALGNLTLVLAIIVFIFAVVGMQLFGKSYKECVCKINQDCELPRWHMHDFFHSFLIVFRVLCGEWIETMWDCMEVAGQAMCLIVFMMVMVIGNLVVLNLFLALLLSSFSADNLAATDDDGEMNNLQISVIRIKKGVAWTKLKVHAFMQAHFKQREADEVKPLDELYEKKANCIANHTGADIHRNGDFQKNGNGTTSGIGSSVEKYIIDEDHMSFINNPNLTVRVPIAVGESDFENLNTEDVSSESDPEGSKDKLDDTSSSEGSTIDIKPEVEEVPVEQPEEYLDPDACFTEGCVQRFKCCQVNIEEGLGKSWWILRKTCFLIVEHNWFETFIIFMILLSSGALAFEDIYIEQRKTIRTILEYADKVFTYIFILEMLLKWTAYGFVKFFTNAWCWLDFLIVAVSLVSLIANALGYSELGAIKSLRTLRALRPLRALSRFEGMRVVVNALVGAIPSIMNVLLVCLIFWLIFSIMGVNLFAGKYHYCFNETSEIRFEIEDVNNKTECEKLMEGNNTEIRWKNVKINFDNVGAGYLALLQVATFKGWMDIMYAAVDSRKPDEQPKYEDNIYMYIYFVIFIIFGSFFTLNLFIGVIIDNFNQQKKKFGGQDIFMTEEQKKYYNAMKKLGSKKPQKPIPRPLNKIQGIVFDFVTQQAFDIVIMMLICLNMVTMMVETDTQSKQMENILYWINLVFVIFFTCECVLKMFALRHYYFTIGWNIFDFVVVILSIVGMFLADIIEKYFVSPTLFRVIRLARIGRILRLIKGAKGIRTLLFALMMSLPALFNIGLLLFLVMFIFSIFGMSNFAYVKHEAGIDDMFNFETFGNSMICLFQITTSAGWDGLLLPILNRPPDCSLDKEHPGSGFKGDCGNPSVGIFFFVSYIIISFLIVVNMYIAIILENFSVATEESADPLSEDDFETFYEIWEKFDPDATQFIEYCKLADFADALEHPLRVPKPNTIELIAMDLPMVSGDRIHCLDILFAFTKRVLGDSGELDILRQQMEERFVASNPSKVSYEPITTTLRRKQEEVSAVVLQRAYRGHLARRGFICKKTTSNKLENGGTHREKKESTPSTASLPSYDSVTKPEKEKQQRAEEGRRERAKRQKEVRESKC
Assay type: cell-based
Method: Functional characterization of exemplary compounds to modulate INaL expressed by the NaV1.6 voltage-gated sodium channel was accomplished using the PatchXpress™ high throughput electrophysiology platform (Molecular Devices, Sunnyvale, CA). HEK-293 cells expressing recombinant, human NaV1.6 (hNaV1.6) were grown in DMEM/high-glucose Dulbecco's modified, 10% FBS, 2 mM sodium pyruvate, 10 mM HEPES and 400 μg/mL G418. Cells were grown to 50%-80% confluency prior to harvesting. Trypsinized cells were washed, allowed to recover for 1 hour and then resuspended in extracellular recording solution at a concentration of 1×10^6 cells/ml. The onboard liquid handling facility of the PatchXpress was used for dispensing cells and applying test compounds. NaV late currents were evoked by the application of 300 nM ATX-II. INaL was evoked by depolarizing pulses to 0 mV for 200 ms from a non-inactivating holding potential (e.g., −120 mV) at a frequency of 0.1 Hz. INaL amplitude and stability were determined by analyzing the mean current amplitude over the final 20 ms of the test pulse. Following steady state block with exemplary compounds (e.g., as described herein), a Na+ free solution containing an impermeant cation (e.g., Choline or NDMG) was added to confirm the identity of the sodium current. Percent steady-state inhibition of INaL was calculated as: […], where INaL_compound and INaL_control represent INaL recorded in the presence or absence of compound, respectively.
Results from this assay relating to percent inhibition of INaL at hNaV1.6 (measured using a procedure similar to described above but using HEK-293 cells expressing recombinant, human NaV 1.6 (h NaV 1.6) at 1 μM are summarized in Table 1 below. In this table, “A” indicates inhibition of less than 30%; “B” indicates inhibition of between about 30% to about 70%; and “C” indicates inhibition of greater than 70%. “N/A” indicates not available.

inhibition at 1 µM [%]	Compound
> 70	CCOC(F)(F)c1nnc2cnc(-c3ccc(O[C@H](C)C(F)F)nc3)cn12 (single isomer, unassigned) [Compound 23]
> 70	CCOC(F)(F)c1nnc2cnc(-c3ccc(O[C@@H](C)C(F)F)nc3)cn12 (single isomer, unassigned) [Compound 24]
> 70	CCOC(F)(F)c1nnc2cnc(-c3ccc(O[C@H](C(C)C)C(F)(F)F)nc3)cn12 (single isomer, unassigned) [Compound 25]
30 to 70	CCOC(F)(F)c1nnc2cnc(-c3ccc(O[C@@H](C(C)C)C(F)(F)F)nc3)cn12 (single isomer, unassigned) [Compound 26]
> 70	COC(F)(F)c1nnc2cnc(-c3ccc(O[C@@H](C(C)C)C(F)(F)F)nc3)cn12 (single isomer, unassigned) [Compound 27]
> 70	COC(F)(F)c1nnc2cnc(-c3ccc(O[C@H](C(C)C)C(F)(F)F)nc3)cn12 (single isomer, unassigned) [Compound 28]
> 70	CCOC(F)(F)c1nnc2cnc(-c3ccc(O[C@H](C4CC4)C(F)(F)F)nc3)cn12 (single isomer, unassigned) [Compound 29]
> 70	CCOC(F)(F)c1nnc2cnc(-c3ccc(O[C@@H](C4CC4)C(F)(F)F)nc3)cn12 (single isomer, unassigned) [Compound 30]
> 70	CC(C)OC(F)(F)c1nnc2cnc(-c3ccc(O[C@@H](C)C(F)(F)F)nc3)cn12 [Compound 22, (S)-3-(difluoro(isopropoxy)methyl)-6-(6-((1,1,1-trifluoropropan-2-yl)oxy)pyridin-3-yl)-[1,2,4]triazolo[4,3-a]pyrazine]

Continued, compound first:

Compound	inhibition at 1 µM [%]
COC(F)(F)c1nnc2cnc(-c3ccc(O[C@H](C4CC4)C(F)(F)F)nc3)cn12 (single isomer, unassigned) [Compound 5]	> 70
COC(F)(F)c1nnc2cnc(-c3ccc(O[C@@H](C4CC4)C(F)(F)F)nc3)cn12 (single isomer, unassigned) [Compound 6]	> 70
COC(F)(F)c1nnc2cnc(-c3ccc(O[C@H](C)C(F)F)nc3)cn12 (single isomer, unassigned) [Compound 9]	> 70
COC(F)(F)c1nnc2cnc(-c3ccc(O[C@@H](C)C(F)F)nc3)cn12 (single isomer, unassigned) [Compound 10]	> 70
CC[C@@H](Oc1ccc(-c2cn3c(C(F)(F)OC)nnc3cn2)cn1)C(F)(F)F (single isomer, unassigned) [Compound 13]	> 70
CC[C@H](Oc1ccc(-c2cn3c(C(F)(F)OC)nnc3cn2)cn1)C(F)(F)F (single isomer, unassigned) [Compound 14]	> 70
COC(F)(F)c1nnc2cnc(-c3ccc(O[C@H](C)C(C)(F)F)nc3)cn12 (single isomer, unassigned) [Compound 15]	> 70
COC(F)(F)c1nnc2cnc(-c3ccc(O[C@@H](C)C(C)(F)F)nc3)cn12 (single isomer, unassigned) [Compound 16]	30 to 70
CCOC(F)(F)c1nnc2cnc(-c3ccc(O[C@H](CC)C(F)(F)F)nc3)cn12 (single isomer, unassigned) [Compound 19]	> 70
CCOC(F)(F)c1nnc2cnc(-c3ccc(O[C@@H](CC)C(F)(F)F)nc3)cn12 (single isomer, unassigned) [Compound 20]	> 70
C[C@@H](Oc1ccc(-c2cn3c(C(F)(F)OC4CC4)nnc3cn2)cn1)C(F)(F)F [Compound 1, (R)-3-(cyclopropoxydifluoromethyl)-6-(6-((1,1,1-trifluoropropan-2-yl)oxy)pyridin-3-yl)-[1,2,4]triazolo[4,3-a]pyrazine]	> 70
C[C@H](Oc1ccc(-c2cn3c(C(F)(F)OC4CC4)nnc3cn2)cn1)C(F)(F)F [Compound 2, (S)-3-(cyclopropoxydifluoromethyl)-6-(6-((1,1,1-trifluoropropan-2-yl)oxy)pyridine-3-yl)-[1,2,4]triazolo[4,3-a]pyrazine]	> 70
CCOC(F)(F)c1nnc2cnc(-c3ccc(O[C@@H](C)C(F)(F)F)nc3)cn12 [Compound 3, (S)-3-(ethoxydifluoromethyl)-6-(6-((1,1,1-trifluoropropan-2-yl)oxy)pyridin-3-yl)-[1,2,4]triazolo[4,3-a]pyrazine]	> 70
CCOC(F)(F)c1nnc2cnc(-c3ccc(OC(C4CC4)C(F)(F)F)nc3)cn12 (stereo not drawn) [Compound 4, 6-(6-(1-cyclopropyl-2,2,2-trifluoroethoxy)pyridin-3-yl)-3-(ethoxydifluoromethyl)-[1,2,4]triazolo[4,3-a]pyrazine]	> 70
COC(F)(F)c1nnc2cnc(-c3ccc(OC(C(C)C)C(F)(F)F)nc3)cn12 (stereo not drawn) [Compound 7, 3-(difluoro(methoxy)methyl)-6-(6-((1,1,1-trifluoro-3-methylbutan-2-yl)oxy)pyridin-3-yl)-[1,2,4]triazolo[4,3-a]pyrazine]	> 70
CCCOC(F)(F)c1nnc2cnc(-c3ccc(OCC(F)(F)F)nc3)cn12 [Compound 8, 3-[difluoro(propoxy)methyl]-6-[6-(2,2,2-trifluoroethoxy)-3-pyridyl]-[1,2,4]triazolo[4,3-a]pyrazine]	> 70
CC(C)OC(F)(F)c1nnc2cnc(-c3ccc(OCC(F)(F)F)nc3)cn12 [Compound 11, 3-[difluoro(isopropoxy)methyl]-6-[6-(2,2,2-trifluoroethoxy)-3-pyridyl]-[1,2,4]triazolo[4,3-a]pyrazine]	> 70
COC(F)(F)c1nnc2cnc(-c3ccc(OC4CC(F)(F)C4(F)F)nc3)cn12 (stereo not drawn) [Compound 12, 3-(difluoro(methoxy)methyl)-6-(6-(2,2,3,3-tetrafluorocyclobutoxy)pyridin-3-yl)-[1,2,4]triazolo[4,3-a]pyrazine]	> 70
CCCOC(F)(F)c1nnc2cnc(-c3ccc(O[C@H](C)C(F)(F)F)nc3)cn12 [Compound 17, 3-[difluoro(propoxy)methyl]-6-[6-[(1R)-2,2,2-trifluoro-1-methyl-ethoxy]-3-pyridyl]-[1,2,4]triazolo[4,3-a]pyrazine]	> 70
CC(C)OC(F)(F)c1nnc2cnc(-c3ccc(O[C@H](C)C(F)(F)F)nc3)cn12 [Compound 18, 3-[difluoro(isopropoxy)methyl]-6-[6-[(1R)-2,2,2-trifluoro-1-methyl-ethoxy]-3-pyridyl]-[1,2,4]triazolo[4,3-a]pyrazine]	> 70
CCCOC(F)(F)c1nnc2cnc(-c3ccc(O[C@@H](C)C(F)(F)F)nc3)cn12 [Compound 21, (S)-3-(difluoro(propoxy)methyl)-6-(6-((1,1,1-trifluoropropan-2-yl)oxy)pyridin-3-yl)-[1,2,4]triazolo[4,3-a]pyrazine]	> 70
